This passage reports IC50 results from patent US20240317741A1, “NAPHTHYRIDINE DERIVATIVE AS ATR INHIBITOR AND METHOD FOR PREPARING SAME” (WIGEN BIOMEDICINE TECHNOLOGY (SHANGHAI) CO., LTD., priority 2021, published 2024).

A value given as a limit tells only on which side of the number the result lay.

In this assay the test system is MIA PaCa-2 cells. The experiment in a line: In-vitro anti-proliferative activity against MIA PaCa-2 cells. Type of assay: cell-based. To be noted: Homo sapiens, 72 h after dosing, intracellular ATP content. As for the experimental part:
MIA PaCa-2 cells were seeded on a 384-well plate at 3000 cells/well. After overnight adherence culture, DMSO or the compounds serially diluted 1:5 from 5 μM were added. […] The inhibition percentage of viable cells by the compounds was calculated by comparing with the DMSO group, and the IC50 value was calculated.
Take `C[C@@H]1COCCN1c1cc(C2(C#N)CCN(c3ccc(Cl)cc3)CC2)c2ccnc(-c3ccn[nH]3)c2n1` [Compound 45, (R)-1-(4-chlorophenyl)-4-(2-(3-methylmorpholino)-8-(1H-pyrazol-5-yl)-1,7-naphthyridin-4-yl)piperidine-4-carbonitrile]: the IC50 (usually the midpoint of a concentration-inhibition curve) is under 1000 nM.

As to `C[C@@H]1COCCN1c1cc(C2(C#N)CCC(N3CCOCC3)CC2)c2ccnc(-c3ccn[nH]3)c2n1` (some centres unmarked) [Compound 65], the 50% inhibitory concentration (IC50) was under 1000 nM.

In the case of `C[C@@H]1COCCN1c1cc(C2(C#N)CCC(OCC3CC3)CC2)c2ccnc(-c3ccn[nH]3)c2n1` (some centres unmarked) [Compound 56], the IC50 was under 1000 nM. `C[C@@H]1COCCN1c1cc(CC#N)c2ccnc(-c3ccn[nH]3)c2n1` [Compound 1, (R)-2-(2-(3-methylmorpholino)-8-(1H-pyrazol-5-yl)-1,7-naphthyridin-4-yl)acetonitrile]: the IC50 is over 5000 nM. In turn, `C[C@@H]1COCCN1c1cc(C2(C#N)CCN(CCN(C)C)CC2)c2ccnc(-c3ccn[nH]3)c2n1` [Compound 78] came in with an IC50 of under 1000 nM. `C[C@@H]1COCCN1c1cc(C2(C#N)CCN(C3CN(C)C3)CC2)c2ccnc(-c3ccn[nH]3)c2n1` [Compound 72] yielded an IC50 of under 1000 nM. The result for `C[C@@H]1COCCN1c1cc(C2(C#N)CCN(c3cccc(F)c3)CC2)c2ccnc(-c3ccn[nH]3)c2n1` [Compound 48] reads under 1000 nM; that for `C[C@@H]1COCCN1c1cc(C2(C#N)CCN(c3ccc(F)cn3)CC2)c2ccnc(-c3ccn[nH]3)c2n1` [Compound 47], 1000 to 5000 nM; that for `C[C@@H]1COCCN1c1cc(C2(C#N)CCN(CC3CCC3)CC2)c2ccnc(-c3ccn[nH]3)c2n1` [Compound 83], under 1000 nM. The result for `C[C@@H]1COCCN1c1cc(C2(C#N)CCCCCC2)c2ccnc(-c3ccn[nH]3)c2n1` [Compound 31] reads under 1000 nM. The molecule `C[C@@H]1COCCN1c1cc(C(C#N)CCN(C)C)c2ccnc(-c3ccn[nH]3)c2n1` (some centres unmarked) [Compound 17] showed an IC50 of 1000 to 5000 nM. In turn, `C[C@@H]1COCCN1c1cc(C2(C#N)CCN(C3COC3)CC2)c2ccnc(-c3ccn[nH]3)c2n1` [Compound 70] yielded an IC50 of under 1000 nM.

`C[C@@H]1COCCN1c1cc(C(C#N)CCN2CCN(C)CC2)c2ccnc(-c3ccn[nH]3)c2n1` (some centres unmarked) [Compound 19] registered an IC50 of 1000 to 5000 nM.

Turning to `C[C@@H]1COCCN1c1cc(C(C)(C)C#N)c2ccnc(-c3ccn[nH]3)c2n1` [Compound 3, (R)-2-methyl-2-(2-(3-methylmorpholino)-8-(1H-pyrazol-5-yl)-1,7-naphthyridin-4-yl)propionitrile], the IC50 was over 5000 nM. In the case of `C[C@@H]1COCCN1c1cc(C2(C#N)CCN(CC3CC3)CC2)c2ccnc(-c3ccn[nH]3)c2n1` [Compound 82] it was under 1000 nM; in that of `C[C@@H]1COCCN1c1cc(C(C#N)CCS(C)(=O)=O)c2ccnc(-c3ccn[nH]3)c2n1` (some centres unmarked) [Compound 15], over 5000 nM; in that of `C[C@@H]1COCCN1c1cc(C2(C#N)CCN(S(C)(=O)=O)CC2)c2ccnc(-c3ccn[nH]3)c2n1` [Compound 39], 1000 to 5000 nM. In the case of `C[C@@H]1COCCN1c1cc(C2(C#N)CCC(N)CC2)c2ccnc(-c3ccn[nH]3)c2n1` (some centres unmarked) [Compound 60] it was under 1000 nM; in that of `C[C@@H]1COCCN1c1cc(C(C#N)C2CCC(N(C)C)CC2)c2ccnc(-c3ccn[nH]3)c2n1` (some centres unmarked) [Compound 23], 1000 to 5000 nM; in that of `C[C@@H]1COCCN1c1cc(C(C#N)CC2CC2)c2ccnc(-c3ccn[nH]3)c2n1` (some centres unmarked) [Compound 6], 1000 to 5000 nM. In the case of `C[C@@H]1COCCN1c1cc(C2(C#N)CCN(CC(N)=O)CC2)c2ccnc(-c3ccn[nH]3)c2n1` [Compound 76], the IC50 was under 1000 nM. In the case of `CCN1CCC(C#N)(c2cc(N3CCOC[C@H]3C)nc3c(-c4ccn[nH]4)nccc23)CC1` [Compound 66] it was under 1000 nM. The molecule `CC(C#N)c1cc(N2CCOC[C@H]2C)nc2c(-c3ccn[nH]3)nccc12` (stereo partly drawn) [Compound 2, 2-(2-((R)-3-methylmorpholino)-8-(1H-pyrazol-5-yl)-1,7-naphthyridin-4-yl)propionitrile] returned an IC50 of over 5000 nM. In the case of `C=CC(C#N)c1cc(N2CCOC[C@H]2C)nc2c(-c3ccn[nH]3)nccc12` (some centres unmarked) [Compound 7] it was over 5000 nM; in that of `C[C@@H]1COCCN1c1cc(C2(C#N)CCC(N3CCCCC3)CC2)c2ccnc(-c3ccn[nH]3)c2n1` (some centres unmarked) [Compound 64], under 1000 nM; in that of `C[C@@H]1COCCN1c1cc(C(C#N)CCO)c2ccnc(-c3ccn[nH]3)c2n1` (some centres unmarked) [Compound 9], 1000 to 5000 nM.

Turning to `CCOP(=O)(CCN1CCC(C#N)(c2cc(N3CCOC[C@H]3C)nc3c(-c4ccn[nH]4)nccc23)CC1)OCC` [Compound 81], the IC50 was under 1000 nM. `C[C@@H]1COCCN1c1cc(C2(C#N)CCC(OC3CC3)CC2)c2ccnc(-c3ccn[nH]3)c2n1` (some centres unmarked) [Compound 57]: the IC50 was under 1000 nM. As to `CNC1CCC(C#N)(c2cc(N3CCOC[C@H]3C)nc3c(-c4ccn[nH]4)nccc23)CC1` (some centres unmarked) [Compound 61], the IC50 was under 1000 nM. As for `COCCC(C#N)c1cc(N2CCOC[C@H]2C)nc2c(-c3ccn[nH]3)nccc12` (some centres unmarked) [Compound 10], the IC50 was 1000 to 5000 nM.

In turn, `COCCN1CCC(C#N)(c2cc(N3CCOC[C@H]3C)nc3c(-c4ccn[nH]4)nccc23)CC1` [Compound 75] showed an IC50 of under 1000 nM. `C[C@@H]1COCCN1c1cc(C2(C#N)CCN(C3CCN(C)C3)CC2)c2ccnc(-c3ccn[nH]3)c2n1` (some centres unmarked) [Compound 74] registered a 50% inhibitory concentration (IC50) of under 1000 nM. In the case of `CC(C)N1CCC(C#N)(c2cc(N3CCOC[C@H]3C)nc3c(-c4ccn[nH]4)nccc23)CC1` [Compound 67] it was under 1000 nM. `CSCCC(C#N)c1cc(N2CCOC[C@H]2C)nc2c(-c3ccn[nH]3)nccc12` (some centres unmarked) [Compound 13] came in with an IC50 of 1000 to 5000 nM. The result for `C[C@@H]1COCCN1c1cc(C2(C#N)CCC3(CC2)COC3)c2ccnc(-c3ccn[nH]3)c2n1` [Compound 51] reads under 1000 nM; that for `C[C@@H]1COCCN1c1cc(C2(C#N)CCN(c3ccc(F)cc3)CC2)c2ccnc(-c3ccn[nH]3)c2n1` [Compound 50], under 1000 nM; that for `C[C@@H]1COCCN1c1cc(C2(C#N)CCC2)c2ccnc(-c3ccn[nH]3)c2n1` [Compound 26], 1000 to 5000 nM. The result for `C[C@@H]1COCCN1c1cc(C2(C#N)CCC3(CC2)CN(C)C3)c2ccnc(-c3ccn[nH]3)c2n1` [Compound 52] reads under 1000 nM. In the case of `CC(C)C(C#N)c1cc(N2CCOC[C@H]2C)nc2c(-c3ccn[nH]3)nccc12` (some centres unmarked) [Compound 5] it was 1000 to 5000 nM; in that of `C[C@@H]1COCCN1c1cc(C2(C#N)CCN(CCS(C)(=O)=O)CC2)c2ccnc(-c3ccn[nH]3)c2n1` [Compound 80], under 1000 nM; in that of `C[C@@H]1COCCN1c1cc(C2(C#N)CCN(C3CCOC3)CC2)c2ccnc(-c3ccn[nH]3)c2n1` (some centres unmarked) [Compound 73], under 1000 nM. The molecule `C[C@@H]1COCCN1c1cc(C2(C#N)CCN(C3CCN(C)CC3)CC2)c2ccnc(-c3ccn[nH]3)c2n1` [Compound 44] had an IC50 of under 1000 nM. `C[C@@H]1COCCN1c1cc(C2(C#N)CCNCC2)c2ccnc(-c3ccn[nH]3)c2n1` [Compound 37, (R)-4-(2-(3-methylmorpholino)-8-(1H-pyrazol-5-yl)-1,7-naphthyridin-4-yl)piperidine-4-carbonitrile] came in with an IC50 of 1000 to 5000 nM. `C[C@@H]1COCCN1c1cc(C(C#N)CCN2CCCC2)c2ccnc(-c3ccn[nH]3)c2n1` (some centres unmarked) [Compound 18] returned a half-inhibitory concentration (IC50) of 1000 to 5000 nM.
